Experimental findings from ChEMBL document CHEMBL5046310, “Design, Synthesis and Biological Evaluation of Prodrugs of 666-15 as Inhibitors of CREB-Mediated Gene Transcription” (ACS Med Chem Lett, 2022) are described below.

Series [1] is described as follows: Stability of the compound in DMEM media with 10% fetal bovine serum assessed as hydrolysis of prodrug at 25 uM measured for 5 mins by RP-HPLC analysis. The conditions noted are these: cattle. It is filed as ADME, cell-free.
Series [2] is described as follows: Tmax in C57BL/6 mouse at 10 mg/kg, ip measured up to 24 hrs by LC-MS/MS analysis. It is filed as ADME, organism-based. The conditions noted are these: in vivo.
Series [3] in a line: Tmax in C57BL/6 mouse at 20 mg/kg, po measured up to 24 hrs by LC-MS/MS analysis. It is filed as ADME, organism-based. Particulars: in vivo.
Series [4] can be described thus: Apparent permeability of the compound across apical to basolateral side in human Caco-2 cells. It is filed as ADME, cell-based. A general note: Passage across Caco-2 layers is used to estimate intestinal permeability.

Structures are written as SMILES.

As to `NCCCOc1cc2ccccc2cc1C(=O)NCCOc1cc2ccccc2cc1C(=O)Nc1ccc(Cl)cc1OCOP(=O)(O)O.O=C(O)C(F)(F)F`, the t1/2 in series [1] was 2.61 h.

Usually Tmax stands for the time at which the peak concentration occurs. The Papp A→B is how fast a substance crosses the layer from the apical side. `Cl.NCCCOc1cc2ccccc2cc1C(=O)NCCOc1cc2ccccc2cc1C(=O)Nc1ccc(Cl)cc1O`: the Tmax in series [2] was found to be 0.25 h; in series [3] it was 2 h. Moreover, the Papp A→B in series [4] is < 0.11 ×10⁻⁶ cm/s.

As for `NCCCOc1cc2ccccc2cc1C(=O)NCCOc1cc2ccccc2cc1C(=O)Nc1ccc(Cl)cc1OP(=O)(O)O.O=C(O)C(F)(F)F`, the results for the Tmax in series [2] and in series [3] were 1 h and 2 h, respectively.
